Assay results as given in patent US7786131B2, “Pyrimido[5,4-d]pyrimidines derivatives as irreversible inhibitors of tyrosine kinases” (Warner-Lambert Company, priority 1996, dated 2010).
Like-named read-outs stand apart in the source and are kept apart here.

Columns and labels:
[1] = system: MCF7 human breast carcinoma; experiment: MCF-7 tumor xenograft; assay type: in vivo, mice
Procedure: (§1) Female nude mice (NCr nu/nu, Taconic Farms) 18-20 g were implanted SC with tumor fragments (approximately 30 mg) in the region of the right axilla on Day 0. […] The vehicle was 6% dimethyl acetamide in 50 mM lactate buffer, pH 4.0Tumor volumes were recorded three times per week by measuring the length and width of the individual tumors and calculating the mass in milligrams according to the formula (a×b^2)/2, where a and b are the length and width of the tumor. Percent T/C (treated/control) was calculated based on the ratio of the median tumor volume of the treated tumors compared with the median tumor volume of the control tumors on specified measurement days.

[2] = system: murine 16/c mammary adenocarcinoma; experiment: Murine 16/c mammary adenocarcinoma model; assay type: in vivo, mice; conditions: doses of up to 120 mg/kg bid
Procedure: as §1

[3] = system: A431 human epidermoid carcinoma; experiment: A431 tumor xenograft; assay type: in vivo, mice
Procedure: as §1

[4] = system: SK-OV-3 human ovarian carcinoma; experiment: SK-OV-3 tumor xenograft; assay type: in vivo, mice; conditions: ID dosing bid Days 10-14, 17-21, 24-28, 30 mg/kg
Procedure: as §1

[5] = target: EGF receptor tyrosine kinase (Homo sapiens, UniProt P00533); experiment: Tyrosine kinase assay, isolated EGF receptor tyrosine kinase; assay type: biochemical; conditions: read-out: EGFR Tyrosine Kinase IC50
EGF receptor tyrosine kinase, sequence (P00533 25-1210): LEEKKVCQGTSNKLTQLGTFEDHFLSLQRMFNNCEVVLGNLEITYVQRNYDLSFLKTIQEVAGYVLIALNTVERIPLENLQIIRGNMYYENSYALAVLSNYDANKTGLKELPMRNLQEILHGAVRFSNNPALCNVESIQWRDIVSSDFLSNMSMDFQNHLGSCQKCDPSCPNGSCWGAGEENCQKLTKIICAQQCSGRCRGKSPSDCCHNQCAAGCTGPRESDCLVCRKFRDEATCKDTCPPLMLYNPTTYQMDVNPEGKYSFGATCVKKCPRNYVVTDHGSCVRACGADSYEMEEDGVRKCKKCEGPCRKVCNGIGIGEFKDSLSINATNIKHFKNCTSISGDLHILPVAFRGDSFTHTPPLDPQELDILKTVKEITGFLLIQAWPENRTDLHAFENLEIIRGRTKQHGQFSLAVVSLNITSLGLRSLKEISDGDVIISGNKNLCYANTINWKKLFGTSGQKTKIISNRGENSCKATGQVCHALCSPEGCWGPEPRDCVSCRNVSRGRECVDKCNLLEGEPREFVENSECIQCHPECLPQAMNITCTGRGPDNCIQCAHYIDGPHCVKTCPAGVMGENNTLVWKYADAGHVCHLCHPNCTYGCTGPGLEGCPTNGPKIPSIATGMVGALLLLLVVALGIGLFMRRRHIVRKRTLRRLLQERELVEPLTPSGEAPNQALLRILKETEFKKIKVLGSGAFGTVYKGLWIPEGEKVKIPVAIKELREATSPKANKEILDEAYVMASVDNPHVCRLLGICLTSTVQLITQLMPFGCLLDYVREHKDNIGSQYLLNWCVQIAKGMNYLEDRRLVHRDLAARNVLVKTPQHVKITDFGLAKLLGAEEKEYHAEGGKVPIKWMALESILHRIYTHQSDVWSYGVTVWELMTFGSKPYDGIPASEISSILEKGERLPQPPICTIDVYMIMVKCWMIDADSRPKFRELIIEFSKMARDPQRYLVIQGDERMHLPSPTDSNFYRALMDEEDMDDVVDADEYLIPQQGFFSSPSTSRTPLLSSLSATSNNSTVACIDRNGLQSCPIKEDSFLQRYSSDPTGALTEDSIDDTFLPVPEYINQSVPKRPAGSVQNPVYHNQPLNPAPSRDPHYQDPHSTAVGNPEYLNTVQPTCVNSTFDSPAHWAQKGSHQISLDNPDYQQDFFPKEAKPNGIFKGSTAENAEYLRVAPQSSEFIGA

[6] = target: T1, EGF receptor autophosphorylation in A431 cells (Homo sapiens, UniProt P00533); experiment: Autophosphorylation assay in A431 cells; assay type: cell-based
T1 construct: A431 human epidermoid carcinoma cells were grown in 6-well plates; endogenous in cells; host or cells: A431 human epidermoid carcinoma cells
T1 sequence (P00533 25-1210): as above
Procedure: (§2) Extracts were made by lysing the monolayers in 0.2 mL of boiling Laemlli buffer (2% sodium dodecyl sulfate, 5% beta-mercaptoethanol, 10% glycerol and 50 mM tris[hydroxymethyl]aminomethane (Tris), pH 6.8), and the lysates were heated to 100° C. for 5 minutes. Proteins in the lysate were separated by polyacrylamide gel electrophoresis and electrophoretically transferred to nitrocellulose. The membrane was washed once in 10 mM Tris, pH 7.2, 150 mM NaCl, 0.01% Azide (TNA), and blocked overnight in TNA containing 5% bovine serum albumin and 1% ovalbumin. The membrane was blotted for 2 hours with antiphosphotyrosine antibody (UBI, 1 μg/mL in blocking buffer) and then washed twice in TNA, once in TNA containing 0.05% Tween-20 detergent and 0.05% nonidet P-40 detergent and twice in TNA. […] Band intensities were determined with a Molecular Dynamics laser densitometer.
Duplicate sets of cells were treated with a range of concentrations of the designated compound to be tested as an inhibitor for 15 minutes. The cells were then stimulated with 100 ng/mL of EGF for 5 minutes and extracts made as described under the Western Blotting Procedure.

[7] = target: T1, EGF receptor autophosphorylation in A431 cells; experiment: Irreversibility test: recovery of EGF receptor autophosphorylation after washout; assay type: cell-based; conditions: A431 cells, 2 μM inhibitor; for % Control After 2-Hour Incubation: EGFR autophosphorylation; for % Control After 8 Hours in Drug-Free Media Incubation: washed, 8 hours drug-free
Procedure: as §2
Duplicate sets of cells were treated with 2 μM of designated compound to be tested as an irreversible inhibitor for either 1 or 2 hours. One set of cells was then stimulated with 100 ng/mL of EGF for 5 minutes and extracts made as described under the western blotting procedure. The other set of cells were washed free of the compound with warmed serum-free media, incubated for 2 hours, washed again, incubated another 2 hours, washed again, and then incubated a further 4 hours. This set of cells was then stimulated with EGF and extracts made similar to the first set of cells.

[8] = In vivo toxicity on IP dosing bid (no tumor named)
[9] = system: NIH 3T3 fibroblast transfected with the h-EGF receptor; experiment: EGFR tumor xenograft in nude mice; conditions: EGFR tumor, IP bid for 14 days
Procedure: as §1

[10] = EGF-stimulated EGFR autophosphorylation in A431 cells

Row | IC50 ([5]; isolated EGFR kinase) | IC50 [6, 10] | % Control After 2-Hour Incubation [7] | % Control After 8 Hours in Drug-Free Media Incubation [7] | melting point | Structure (SMILES) | further results
1 | 0.48 nM | 8.3 nM | 0% | 0% | 221 to 223 °C (dec.) | C=CC(=O)Nc1cc2c(Nc3cccc(C)c3)ncnc2cn1 [Example 37, N-[4-(3-Methyl-phenylamino)-pyrido [3,4-d]pyrimidin-6-yl]acryl] | –
2 | 1.6 nM | 90 nM | 1% | 90% | 269.7 to 270 °C | C=CC(=O)Nc1ccc2c(Nc3cccc(C)c3)ncnc2c1 [Example 13, N-[4-(3-Methyl-phenylamino)-quinazolin-7-yl]acrylamide] | –
3 | 1.1 nM | 5.6 nM | 0% | 0% | 226 to 228 °C | C=CC(=O)Nc1ccc2ncnc(Nc3cccc(Br)c3)c2n1 [Example 41, N-[4-(3-Bromo-phenylamino)-pyrido [3,2-d]pyrimidin-6-yl]-acrylamide] | –
4 | 124 nM | > 500 nM | 81% | 95% | 174 to 175 °C | CC(=O)N(c1cccc(Br)c1)c1ncnc2ccc(N3C(=O)C=CC3=O)cc12 [Example 58, N-(3-Bromo-phenyl)-N-[6-(2,5-dioxo-2,5-dihydro-pyrrol-1-yl)-quinazolin-4-yl]-acetamide] | –
5 | 21 nM | 327 nM | 13% | 42% | 251 to 252.4 °C | C=CC(=O)Nc1ccc2c(c1)sc1c(Nc3cccc(Br)c3)ncnc12 [Example 44, N-[4-(3-Bromo-phenylamino)-benzo[b]thieno [3,2-d]pyrimidin-7-yl]acrylamide] | –
6 | 1.5 nM | 27 nM | 0% | 0% | 69 to 72 °C | C=CC(=O)Nc1cc2c(Nc3cccc(C)c3)ncnc2cc1OCCCN1CCOCC1 [Example 22, N-[4-[(3-Methylphenyl)amino]-7-[3-(4-moroholino)-propoxy]quinazolin-6-yl]acrylamide] | –
7 | – | – | – | – | 105 to 107 °C | C=CC(=O)Nc1cc2c(Nc3cccc(Br)c3)ncnc2cc1OCCCN1CCN(C)CC1 [Example 24, N-[4-[(3-Bromophenyl)amino]-7-[3-(4,N-methyl-1,N-piperazino)propoxy]quinazolin-6-yl]acrylamide] | IC50 [5]: 4 nM; IC50 [6]: 7.9 nM

The remaining lines, values behind:

Row | Structure (SMILES) | IC50 ([5]; isolated EGFR kinase) | IC50 [6, 10] | % Control After 2-Hour Incubation [7] | % Control After 8 Hours in Drug-Free Media Incubation [7] | melting point | further results
8 | C=CC(=O)Nc1ccc2ncnc(Nc3cccc(Br)c3)c2c1 [Example 11, N-[4-[(3-Bromophenyl)amino]quinazolin-6-yl]acrylamide] | – | – | – | – | – | growth delay ([1]; IP bid Days 1-5, 8-12, 15-19, 28 mg/kg): 22.9 days; growth delay ([1]; IP bid Days 1-5, 8-12, 15-19, 47 mg/kg): 17.4 days; activity [2]: Inactive; growth delay ([3]; IP bid Days 7-11, 21-25, 28 mg/kg): 28.2 days; growth delay ([3]; PO once daily Days 7-21, 100 mg/kg): 2 days; growth delay ([3]; PO once daily Days 7-21, 200 mg/kg): 3.5 days; growth delay [4]: 1.2 days
9 | C=CC(=O)Nc1cc2c(Nc3cccc(Br)c3)ncnc2cc1OCCCCN(C)C [Example 26, N-[4-[(3-Bromophenyl)amino]-7-[4-(N,N-dimethyl-amino)butoxy]quinazolin-6-yl]acrylamide] | 1.7 nM | 3 nM | 0% | 0% | 112 to 115 °C | –
10 | C=CC(=O)N(CCCN1CCOCC1)c1ccc2c(Nc3cccc(Br)c3)ncnc2c1 [Example 4, N-[4-[(3-Bromophenyl)amino]quinazolin-7-yl]-N-[3-morpholinopropyl]acrylamide] | 89 nM | 2090 nM | 55% | 98% | 86 to 88 °C (dec.) | –
11 | C=CC(=O)Nc1cc2c(Nc3cccc(Br)c3)ncnc2cc1OCCCN1CCOCC1 [Example 21, N-[4-[(3-Bromophenyl)amino]-7-[3-(4-morpholino)propoxy]quinazolin-6-yl]acrylamide] | – | – | – | – | – | toxicity ([8]; 48 mg/kg): toxic
12 | C=CC(=O)Nc1ccc2ncnc(Nc3cccc(C)c3)c2c1 [Example 19, N-[4-[(3-methylphenyl)amino]quinazolin-6-yl]acrylamide] | 0.42 nM | 4.7 nM | 0% | 0% | – | growth delay ([3]; SC-Infusion (Alzet) Days 9-23, 12 mg/kg/day): 15 days; growth delay ([3]; SC-Infusion (Alzet) Days 9-23, 24 mg/kg/day): 14 days; growth delay [4]: 1.3 days; growth delay ([9]; 48 mg/kg): 6.4 days; growth delay ([9]; 77 mg/kg): 7.9 days; growth delay ([9]; 124 mg/kg): 11.8 days; toxicity ([9]; 200 mg/kg): toxic
13 | C=CS(=O)(=O)Nc1cc2c(Nc3cccc(Br)c3)ncnc2cn1 [Example 40, N-[4-(3-Bromo-phenylamino)-pyrido[3,4-d]pyrimidin-6-yl]-ethenylsulfonamide] | – | – | – | – | – | toxicity ([8]; 48 and 20 mg/kg): toxic
